In experiment [1] the target is T1, catalytic domain of MMP-13 enzyme (Homo sapiens, UniProt P45452).
T1 construct: stock solution of catalytic domain of MMP-13 enzyme (produced by Alantos or commercially available from Invitek (Berlin), Cat.# 30100812); purchased Invitek (Berlin) 30100812
As to the kind of experiment: Assay for determining MMP-13 inhibition (fluorescent substrate). It is filed as biochemical. The note with it: Table 1, activity group. As to the method:
The typical assay for MMP-13 activity is carried out in assay buffer comprised of 50 mM Tris, pH 7.5, 150 mM NaCl, 5 mM CaCl2 and 0.05% Brij-35. Different concentrations of tested compounds are prepared in assay buffer in 50 μL aliquots. […] The mixture of enzyme and compound in assay buffer is thoroughly mixed and incubated for 10 min at room temperature. […] The time-dependent increase in fluorescence is measured at the 320 nm excitation and 390 nm emission by automatic plate multireader. The IC50 values are calculated from the initial reaction rates.

For another experiment, the target named is T2, activated MMP-8 enzyme (Homo sapiens, UniProt P22894).
T2 construct: purchased Calbiochem 444229
As to the kind of experiment: Assay for determining MMP-8 inhibition (fluorescent substrate). It is filed as biochemical. The following applies: Table 2, activity group. The protocol: The typical assay for MMP-8 activity is carried out in assay buffer comprised of 50 mM Tris, pH 7.5, 150 mM NaCl, 5 mM CaCl2 and 0.05% Brij-35. Different concentrations of tested compounds are prepared in assay buffer in 50 μL aliquots. […] The mixture of enzyme and compound in assay buffer is thoroughly mixed and incubated for 10 min at 37° C. […] The time-dependent increase in fluorescence is measured at the 320 nm excitation and 390 nm emission by an automatic plate multireader at 37° C. The IC50 values are calculated from the initial reaction rates.

For 53 compounds, IC50 results are on record in patent US7749996B2, “Heterotricyclic metalloprotease inhibitors” (Alantos Pharmaceutical Holdings, Inc., priority 2006, dated 2010).

T2 sequence (P22894 101-467): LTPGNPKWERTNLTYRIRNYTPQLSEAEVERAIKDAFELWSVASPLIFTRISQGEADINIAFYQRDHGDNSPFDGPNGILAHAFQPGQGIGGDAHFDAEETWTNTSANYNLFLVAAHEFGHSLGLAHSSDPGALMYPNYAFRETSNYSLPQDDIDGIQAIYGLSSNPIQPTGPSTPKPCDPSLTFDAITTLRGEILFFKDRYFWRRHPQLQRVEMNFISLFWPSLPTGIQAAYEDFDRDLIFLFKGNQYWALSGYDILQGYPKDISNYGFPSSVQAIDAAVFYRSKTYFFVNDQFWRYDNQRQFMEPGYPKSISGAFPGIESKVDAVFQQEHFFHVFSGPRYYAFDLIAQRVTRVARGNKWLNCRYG

Turning to `O=C1COc2cc(CNC(=O)c3nc4sc5ccccc5c4c(=O)[nH]3)ccc2N1` [2/24], the IC50 (commonly the point on the concentration scale where inhibition reaches its midpoint) in experiment [1] was in the range of 100 to 20000 nM. On to `O=C1COc2ccc(CNC(=O)c3nc4sc5ccccc5c4c(=O)[nH]3)cc2N1` [2/25], for which the values for the IC50 (in experiment [1]; on activated MMP-8 enzyme) were < 100 nM and < 250 nM, respectively. Regarding `CN1CCc2c(sc3nc(C(=O)NCc4ccc5c(c4)NC(=O)CO5)[nH]c(=O)c23)C1` [2/29], the IC50 in experiment [1] was < 100 nM. Consider `O=C1COc2ccc(CNC(=O)c3nc4sc5c(c4c(=O)[nH]3)CCCC5)cc2N1` [2/33], for which the IC50 is < 100 nM in experiment [1] and < 250 nM against activated MMP-8 enzyme. For the compound `O=C1COc2cc(CNC(=O)c3nc4sc5c(c4c(=O)[nH]3)CCCC5)ccc2N1` [2/34], the IC50 in experiment [1] is 100 to 20000 nM. Regarding `Nc1c(N2CCc3ccc(CNC(=O)c4nc5sc6c(c5c(=O)[nH]4)CCC6)cc3C2)c(=O)c1=O` [2/52], the IC50 was < 100 nM in experiment [1] and < 250 nM on activated MMP-8 enzyme. Turning to `Nc1c(N2CCc3ccc(CNC(=O)c4nc5sc6ccccc6c5c(=O)[nH]4)cc3C2)c(=O)c1=O` [2/67], in experiment [1], the IC50 was < 100 nM. As to `O=C1COc2ccc(CNC(=O)c3nc4sc5c(c4c(=O)[nH]3)C3CCN5CC3)cc2N1` [2/89], the IC50 in experiment [1] was < 100 nM.

`Nc1c(N2CCc3ccc(CNC(=O)c4nc5sc6c(c5c(=O)[nH]4)C4CCN6CC4)cc3C2)c(=O)c1=O` [2/90]: the IC50 in experiment [1] was < 100 nM.

`CC(=O)N1CCc2c(sc3nc(C(=O)NCc4ccc5c(c4)NC(=O)CO5)[nH]c(=O)c23)C1` [2/94]: the concentration for half-maximal inhibition (IC50) in experiment [1] is < 100 nM; on activated MMP-8 enzyme, < 250 nM. On the same counts, the results for `CCOC(=O)C1CCc2sc3nc(C(=O)NCc4ccc5c(c4)NC(=O)CO5)[nH]c(=O)c3c21` (centres unmarked) [2/113] are < 100 nM and < 250 nM. The like results for `CCOC(=O)C1CCc2sc3nc(C(=O)NCc4ccc5c(c4)CN(c4c(N)c(=O)c4=O)CC5)[nH]c(=O)c3c21` (centres unmarked) [2/114] were, in that order, < 100 nM and < 250 nM. Take `O=C1COc2ccc(CNC(=O)c3nc4sc5c(c4c(=O)[nH]3)CCCS5)cc2N1` [2/119]: the IC50 in experiment [1] is < 100 nM. Same read-out and setting: the same measure for `Nc1c(N2CCc3ccc(CNC(=O)c4nc5sc6c(c5c(=O)[nH]4)CCCS6)cc3C2)c(=O)c1=O` [2/120]: < 100 nM.

In experiment [1], `CC(C)(C)c1ccc2c(c1)sc1nc(C(=O)NCc3ccc4c(c3)NC(=O)CO4)[nH]c(=O)c12` [2/143] gave a half-maximal inhibitory concentration (IC50) of 100 to 20000 nM. Still for that read-out and setting: next, `CC(C)(C)c1ccc2c(c1)sc1nc(C(=O)NCc3ccc4c(c3)CN(c3c(N)c(=O)c3=O)CC4)[nH]c(=O)c12` [2/144]: 100 to 20000 nM. Take `O=C1COc2ccc(CNC(=O)c3nc4sc5c(c4c(=O)[nH]3)CCC(c3ccccc3)C5)cc2N1` (centres unmarked) [2/145]: in experiment [1], the IC50 was < 100 nM. Still for that read-out and setting: next, `Nc1c(N2CCc3ccc(CNC(=O)c4nc5sc6c(c5c(=O)[nH]4)CCC(c4ccccc4)C6)cc3C2)c(=O)c1=O` (centres unmarked) [2/146]: 100 to 20000 nM; `Nc1c(N2CCc3ccc(CNC(=O)c4nc5sc6c(c5c(=O)[nH]4)CCCSC6)cc3C2)c(=O)c1=O` [2/219]: < 100 nM.

Consider `C#CCNC(=O)C1CCc2sc3nc(C(=O)NCc4ccc5c(c4)NC(=O)CO5)[nH]c(=O)c3c21` (centres unmarked) [2/223], for which the IC50 against activated MMP-8 enzyme is < 250 nM.

Regarding `COC(=O)C1Cc2sc3nc(C(=O)NCc4ccc5c(c4)CN(c4c(N)c(=O)c4=O)CC5)[nH]c(=O)c3c2C1` (centres unmarked) [2/230], the half-inhibitory concentration (IC50) on activated MMP-8 enzyme is < 250 nM. For the compound `O=C1COc2ccc(CNC(=O)c3nc4cc5c(cc4c(=O)[nH]3)CCC5)cc2N1` [2/246], the 50% inhibitory concentration (IC50) in experiment [1] is < 100 nM. Regarding `CCNC(=O)CC1CCCc2sc3nc(C(=O)NCc4ccc5c(c4)NC(=O)CO5)[nH]c(=O)c3c21` (centres unmarked) [2/269], on activated MMP-8 enzyme, the IC50 is < 250 nM. Compound `O=C(NCC1CC1)c1nc2sc3c(c2c(=O)[nH]1)CCC3` [2/291] showed an IC50 in experiment [1] of 100 to 20000 nM. For `CC(C)NC(=O)c1nc2sc3c(c2c(=O)[nH]1)CCC3` [2/294], the IC50 in experiment [1] fell in the range of 100 to 20000 nM. The same measure, in the same setting: next, `CS(=O)(=O)c1ccc(CNC(=O)c2nc3sc4c(c3c(=O)[nH]2)CCC4)cc1` [2/302]: 100 to 20000 nM; `O=C(c1nc2sc3c(c2c(=O)[nH]1)CCC3)N1CC[C@H]2CCCC[C@@H]2C1` [2/305]: 100 to 20000 nM; `COC(=O)C1SCCN1C(=O)c1nc2sc3c(c2c(=O)[nH]1)CCC3` (centres unmarked) [2/307]: 100 to 20000 nM.

Take `O=C(NCc1cccnc1)c1nc2sc3c(c2c(=O)[nH]1)CCC3` [2/309]: the IC50 in experiment [1] is < 100 nM. Turning to `C[C@@H](NC(=O)c1nc2sc3c(c2c(=O)[nH]1)CCC3)c1ccc(F)cc1` [2/319], in experiment [1], the IC50 is 100 to 20000 nM. As to `NC(=O)[C@@H]1CCC[C@@H]1NC(=O)c1nc2sc3c(c2c(=O)[nH]1)CCC3` [2/323], the IC50 in experiment [1] lay within 100 to 20000 nM. On the same count and under the same terms, the same measure for `NC(=O)[C@@H](NC(=O)c1nc2sc3c(c2c(=O)[nH]1)CCC3)c1ccccc1` [2/327]: 100 to 20000 nM; for `O=C(NC(c1ccccc1)c1ccccn1)c1nc2sc3c(c2c(=O)[nH]1)CCC3` (centres unmarked) [2/328]: 100 to 20000 nM. Still for that read-out and setting: the same measure for `O=C(NCc1ccc(F)c(OC(F)(F)F)c1)c1nc2sc3c(c2c(=O)[nH]1)CCC3` [2/332]: < 100 nM; for `O=C(NCc1csc2ccccc12)c1nc2sc3c(c2c(=O)[nH]1)CCC3` [2/333]: 100 to 20000 nM. The same measure, in the same setting: the same measure for `O=C(NCc1ccsc1)c1nc2sc3c(c2c(=O)[nH]1)CCC3` [2/344]: 100 to 20000 nM. `O=C(CCc1ccc2sccc2c1)c1nc2sc3c(c2c(=O)[nH]1)CCC3` [2/352] gave an IC50 in experiment [1] of 100 to 20000 nM. Same read-out and setting: next, `O=C(NCc1ccc2occc2c1)c1nc2sc3c(c2c(=O)[nH]1)CCC3` [2/354]: < 100 nM; `O=C(NCc1ccc(CN2CCOCC2)cc1)c1nc2sc3c(c2c(=O)[nH]1)CCC3` [2/355]: 100 to 20000 nM. In the case of `O=C(NCc1cccc(N2CCOCC2)c1)c1nc2sc3c(c2c(=O)[nH]1)CCC3` [2/359], in experiment [1], the IC50 was < 100 nM.

Consider `NS(=O)(=O)c1ccc(CNC(=O)c2nc3sc4c(c3c(=O)[nH]2)CCC4)s1` [2/367], for which the IC50 in experiment [1] is < 100 nM.

In experiment [1], `O=C(NCc1ccc(C(F)(F)F)nc1)c1nc2sc3c(c2c(=O)[nH]1)CCC3` [2/368] returned a half-inhibitory concentration (IC50) of 100 to 20000 nM. For `O=C(NCc1ccc2c(c1)OCO2)c1nc2sc3c(c2c(=O)[nH]1)CCC3` [2/382], the IC50 against activated MMP-8 enzyme lay in the range of 250 to 20000 nM. With `COc1cccc(CNC(=O)c2nc3sc4c(c3c(=O)[nH]2)CCC4)c1` [2/387], the concentration for half-maximal inhibition (IC50) against activated MMP-8 enzyme was in the range of 250 to 20000 nM. Consider `COC(=O)C1(CNC(=O)c2nc3sc4c(c3c(=O)[nH]2)CCC4)CCCCC1` [2/526], for which the IC50 in experiment [1] is < 100 nM. In turn, `O=C(NCc1cccc(N2CCOCC2)c1)c1nc2sc3c(c2c(=O)[nH]1)CCC3` [2/529] registered an IC50 on activated MMP-8 enzyme of 250 to 20000 nM. Consider `NS(=O)(=O)c1ccc(CCNC(=O)c2nc3sc4c(c3c(=O)[nH]2)CCC4)cc1` [2/530], for which the IC50 in experiment [1] fell in the range of 100 to 20000 nM. Turning to `O=C1COc2ccc(CNC(=O)c3nc4sc5c(c4c(=O)[nH]3)CCNCC5)cc2N1` [15/3], the IC50 at activated MMP-8 enzyme was 250 to 20000 nM. `O=C1COc2ccc(CNC(=O)c3nc4sc5c(c4c(=O)[nH]3)CCCNC5)cc2N1` [15/4]: the IC50 in experiment [1] is < 100 nM.

Turning to `O=C1COc2ccc(CNC(=O)c3nc4sc5c(c4c(=O)[nH]3)CNCC5)cc2N1` [15/5], the IC50 in experiment [1] was < 100 nM. As to `O=C1COc2ccc(CNC(=O)c3nc4sc5c(c4c(=O)[nH]3)CCCSC5)cc2N1` [Example 2/218], the IC50 against activated MMP-8 enzyme was < 250 nM. On the same count and under the same terms, the same measure for `CC(=O)N1Cc2sc3nc(C(=O)NCc4ccc5c(c4)NC(=O)CO5)[nH]c(=O)c3c2C1` [Example 42]: 250 to 20000 nM. Still for that read-out and setting: next, `O=C1COc2ccc(CNC(=O)c3nc4sc5c(c4c(=O)[nH]3)CN(Cc3ccccc3)C5)cc2N1` [Example 43/1]: < 250 nM.
